pIC50: −log10 of the molar value.
Legend:
CSK = CSK (Homo sapiens, UniProt P41240); experiment: Selectivity profile (123 kinase panel); assay type: biochemical
JAK3 = JAK3 (Homo sapiens, UniProt P52333); experiment: Selectivity profile (123 kinase panel); assay type: biochemical
ACK = ACK (Homo sapiens, UniProt Q07912); experiment: Selectivity profile (123 kinase panel); assay type: biochemical
EPHA8 = EPHA8 (Homo sapiens, UniProt P29322); experiment: Selectivity profile (123 kinase panel); assay type: biochemical
KIT = KIT (Homo sapiens, UniProt P10721); experiment: Selectivity profile (123 kinase panel); assay type: biochemical
EPHB3 = EPHB3 (Homo sapiens, UniProt P54753); experiment: Selectivity profile (123 kinase panel); assay type: biochemical
Chain of EPHB3 (P54753 34-998, species assumed): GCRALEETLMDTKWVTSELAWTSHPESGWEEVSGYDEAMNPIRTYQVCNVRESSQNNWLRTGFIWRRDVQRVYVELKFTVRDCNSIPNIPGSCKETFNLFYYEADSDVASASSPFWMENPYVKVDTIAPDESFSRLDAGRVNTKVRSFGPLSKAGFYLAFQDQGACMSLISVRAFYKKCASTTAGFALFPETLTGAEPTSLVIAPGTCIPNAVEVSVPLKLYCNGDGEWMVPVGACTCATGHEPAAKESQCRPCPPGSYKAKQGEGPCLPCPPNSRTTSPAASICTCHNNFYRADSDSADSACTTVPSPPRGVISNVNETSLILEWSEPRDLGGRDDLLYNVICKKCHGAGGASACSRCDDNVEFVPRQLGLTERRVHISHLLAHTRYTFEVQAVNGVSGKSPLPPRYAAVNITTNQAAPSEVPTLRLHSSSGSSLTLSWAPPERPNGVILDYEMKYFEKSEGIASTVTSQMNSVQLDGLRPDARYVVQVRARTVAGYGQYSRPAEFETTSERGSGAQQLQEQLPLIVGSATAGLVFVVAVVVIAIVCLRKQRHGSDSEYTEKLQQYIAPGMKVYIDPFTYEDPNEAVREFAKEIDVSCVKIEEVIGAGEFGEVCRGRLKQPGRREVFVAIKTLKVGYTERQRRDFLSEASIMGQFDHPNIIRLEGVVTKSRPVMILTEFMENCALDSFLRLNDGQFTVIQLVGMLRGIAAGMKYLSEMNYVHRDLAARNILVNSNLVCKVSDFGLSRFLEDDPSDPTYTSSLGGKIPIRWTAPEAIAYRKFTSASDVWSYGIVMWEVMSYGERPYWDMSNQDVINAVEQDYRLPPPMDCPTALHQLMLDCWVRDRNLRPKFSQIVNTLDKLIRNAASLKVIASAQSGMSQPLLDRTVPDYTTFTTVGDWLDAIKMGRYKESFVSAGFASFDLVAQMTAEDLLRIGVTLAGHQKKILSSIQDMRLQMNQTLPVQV

CLK3 = CLK3 (Homo sapiens, UniProt P49761); experiment: Selectivity profile (123 kinase panel); assay type: biochemical
NuaK2 = NuaK2 (Homo sapiens, UniProt Q9H093); experiment: Selectivity profile (123 kinase panel); assay type: biochemical
Chain of NuaK2 (Q9H093 whole entry): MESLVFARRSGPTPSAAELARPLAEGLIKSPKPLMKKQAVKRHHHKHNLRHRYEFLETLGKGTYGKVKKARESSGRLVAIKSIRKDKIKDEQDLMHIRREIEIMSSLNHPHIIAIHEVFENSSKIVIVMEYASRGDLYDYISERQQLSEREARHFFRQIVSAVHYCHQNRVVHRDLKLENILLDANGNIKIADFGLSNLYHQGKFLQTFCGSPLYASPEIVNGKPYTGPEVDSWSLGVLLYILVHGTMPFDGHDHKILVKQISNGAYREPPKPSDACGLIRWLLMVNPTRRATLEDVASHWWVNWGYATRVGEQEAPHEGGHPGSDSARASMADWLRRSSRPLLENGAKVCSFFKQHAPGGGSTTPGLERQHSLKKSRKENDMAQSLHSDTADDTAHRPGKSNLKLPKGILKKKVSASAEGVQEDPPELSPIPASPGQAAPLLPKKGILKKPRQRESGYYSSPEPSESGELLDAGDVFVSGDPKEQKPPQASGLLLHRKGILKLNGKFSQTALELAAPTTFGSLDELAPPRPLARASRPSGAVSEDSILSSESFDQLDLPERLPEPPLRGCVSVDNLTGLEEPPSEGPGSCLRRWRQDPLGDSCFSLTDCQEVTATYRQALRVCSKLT

FGFR4 = FGFR4 (Homo sapiens, UniProt P22455); experiment: Selectivity profile (123 kinase panel); assay type: biochemical
Chain of FGFR4 (P22455 22-802, species assumed): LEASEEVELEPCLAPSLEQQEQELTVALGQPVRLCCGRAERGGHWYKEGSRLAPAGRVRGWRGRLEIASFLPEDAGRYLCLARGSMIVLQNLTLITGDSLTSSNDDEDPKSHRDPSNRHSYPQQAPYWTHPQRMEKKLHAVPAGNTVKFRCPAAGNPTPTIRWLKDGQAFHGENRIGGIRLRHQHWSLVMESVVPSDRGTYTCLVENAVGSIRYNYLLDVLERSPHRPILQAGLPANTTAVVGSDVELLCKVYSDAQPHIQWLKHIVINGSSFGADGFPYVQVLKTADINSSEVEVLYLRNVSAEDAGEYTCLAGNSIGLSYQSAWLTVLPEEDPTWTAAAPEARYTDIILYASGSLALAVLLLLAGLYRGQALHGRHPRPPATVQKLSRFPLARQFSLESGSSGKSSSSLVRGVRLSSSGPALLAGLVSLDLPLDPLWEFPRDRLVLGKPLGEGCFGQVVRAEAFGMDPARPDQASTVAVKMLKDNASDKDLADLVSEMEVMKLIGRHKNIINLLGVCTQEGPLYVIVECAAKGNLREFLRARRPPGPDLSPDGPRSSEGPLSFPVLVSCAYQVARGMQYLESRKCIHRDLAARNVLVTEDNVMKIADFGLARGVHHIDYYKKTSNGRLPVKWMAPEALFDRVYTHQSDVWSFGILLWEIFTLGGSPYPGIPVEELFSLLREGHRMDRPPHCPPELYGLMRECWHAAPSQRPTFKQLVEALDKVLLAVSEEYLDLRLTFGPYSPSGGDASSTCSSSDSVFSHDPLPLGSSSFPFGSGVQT

MCF-10A = experiment: Cytotoxicity on normal human cells (MTT); assay type: cell-based; settings: MCF-10A normal human mammary epithelial cells
Protocol: (§1) Cell viability was measured by MTT assays. MDA-MB-231, MCF-10A, L02, FHC, PNT1A, HEL-299, and HEK-293 cell lines were seeded in 96-well plates at 5 ×10^4 cells/well and incubated overnight. Different concentrations of PPNR1-5 or positive control were then added to each well and cultured at 37°C for 72 h. Afterward, the medium was removed. MTT (5 mg/mL) was dissolved in phosphate-buffered saline (PBS) and filter-sterilized, and then, 20 μL of the prepared MTT solution was added to each well, and the cells were incubated for another 4 h until a purple precipitate was visible. The supernatant was removed by centrifugation, and DMSO (150 μL/well) was added to dissolve the insoluble crystals. The absorbance was determined using an enzyme-linked immunosorbent assay reader at a test wavelength of 570 nm. The assays were performed three times in a parallel manner. The non-linear regression was used to plot a Dose-Response-Inhibition to determine the value of the IC50. The cell inhibition rate was calculated at 2 μM concentration of compound treatment. The data were analyzed using GraphPad Prism 9 software.

L02 = experiment: Cytotoxicity on normal human cells (MTT); assay type: cell-based
Protocol: as §1

HEK-293 = experiment: Cytotoxicity on normal human cells (MTT); assay type: cell-based; settings: HEK293, HEK-293 normal human cells
Protocol: as §1

PNT1A = experiment: Cytotoxicity on normal human cells (MTT); assay type: cell-based
Protocol: as §1

HEL-299 = experiment: Cytotoxicity on normal human cells (MTT); assay type: cell-based; settings: HEL-299 normal human cells
Protocol: as §1

FHC = experiment: Cytotoxicity on normal human cells (MTT); assay type: cell-based
Protocol: as §1

AKT3 = AKT3 (Homo sapiens, UniProt Q9Y243); experiment: Selectivity profile (123 kinase panel); assay type: biochemical
Chain of AKT3 (Q9Y243 whole entry): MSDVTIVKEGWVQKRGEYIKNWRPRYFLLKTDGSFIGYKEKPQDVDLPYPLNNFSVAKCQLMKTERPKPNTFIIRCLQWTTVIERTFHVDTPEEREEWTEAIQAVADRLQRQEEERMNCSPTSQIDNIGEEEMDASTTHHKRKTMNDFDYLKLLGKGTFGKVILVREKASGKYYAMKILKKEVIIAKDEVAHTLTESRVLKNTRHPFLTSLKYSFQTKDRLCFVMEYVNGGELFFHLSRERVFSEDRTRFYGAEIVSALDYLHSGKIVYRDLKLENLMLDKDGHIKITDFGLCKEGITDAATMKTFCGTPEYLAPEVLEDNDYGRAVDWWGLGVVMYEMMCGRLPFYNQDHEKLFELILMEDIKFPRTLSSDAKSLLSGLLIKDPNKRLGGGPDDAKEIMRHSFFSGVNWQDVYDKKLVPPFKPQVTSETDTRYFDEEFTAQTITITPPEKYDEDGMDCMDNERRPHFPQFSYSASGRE

NEK9 = NEK9 (Homo sapiens, UniProt Q8TD19); experiment: Selectivity profile (123 kinase panel); assay type: biochemical
PARP2 = PARP2 (Homo sapiens, UniProt Q9UGN5); experiment: Selectivity profile (other isoforms of PARP and NRP family); assay type: biochemical
Chain of PARP2 (Q9UGN5 whole entry, canonical isoform): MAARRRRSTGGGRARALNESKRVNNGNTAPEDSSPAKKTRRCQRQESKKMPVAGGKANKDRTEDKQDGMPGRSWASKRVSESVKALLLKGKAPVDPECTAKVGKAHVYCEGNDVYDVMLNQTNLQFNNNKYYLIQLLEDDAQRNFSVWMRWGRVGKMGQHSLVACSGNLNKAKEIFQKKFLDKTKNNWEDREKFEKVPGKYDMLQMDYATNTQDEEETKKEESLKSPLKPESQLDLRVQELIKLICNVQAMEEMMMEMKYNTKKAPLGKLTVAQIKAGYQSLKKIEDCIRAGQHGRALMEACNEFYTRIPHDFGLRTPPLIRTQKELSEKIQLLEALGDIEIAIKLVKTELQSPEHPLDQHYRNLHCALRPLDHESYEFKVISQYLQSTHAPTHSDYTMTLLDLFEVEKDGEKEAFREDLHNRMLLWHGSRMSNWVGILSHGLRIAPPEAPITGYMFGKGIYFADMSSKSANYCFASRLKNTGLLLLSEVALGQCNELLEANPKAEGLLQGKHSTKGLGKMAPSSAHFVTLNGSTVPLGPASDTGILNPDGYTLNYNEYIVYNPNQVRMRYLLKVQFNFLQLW

JAK2 = JAK2 (Homo sapiens, UniProt O60674); experiment: Selectivity profile (123 kinase panel); assay type: biochemical
DYRK1A = DYRK1A (Homo sapiens, UniProt Q13627); experiment: Selectivity profile (123 kinase panel); assay type: biochemical
ALK = ALK (Homo sapiens, UniProt Q9UM73); experiment: Selectivity profile (123 kinase panel); assay type: biochemical
FAK = FAK (Homo sapiens, UniProt Q05397); experiment: Selectivity profile (123 kinase panel); assay type: biochemical
CLK4 = CLK4 (Homo sapiens, UniProt Q9HAZ1); experiment: Selectivity profile (123 kinase panel); assay type: biochemical
LCK = LCK (Homo sapiens, UniProt P06239); experiment: Selectivity profile (123 kinase panel); assay type: biochemical
FLT1 = FLT1 (Homo sapiens, UniProt P17948); experiment: Selectivity profile (123 kinase panel); assay type: biochemical
PARP13 = PARP13 (Homo sapiens, UniProt Q7Z2W4); experiment: Selectivity profile (other isoforms of PARP and NRP family); assay type: biochemical
ITK = ITK (Homo sapiens, UniProt Q08881); experiment: Selectivity profile (123 kinase panel); assay type: biochemical
MET = MET (Homo sapiens, UniProt P08581); experiment: Selectivity profile (123 kinase panel); assay type: biochemical
FGFR2 = FGFR2 (Homo sapiens, UniProt P21802); experiment: Selectivity profile (123 kinase panel); assay type: biochemical
BRK = BRK (Homo sapiens, UniProt Q13882); experiment: Selectivity profile (123 kinase panel); assay type: biochemical
FGFR3 = FGFR3 (Homo sapiens, UniProt P22607); experiment: Selectivity profile (123 kinase panel); assay type: biochemical
PARP7 = PARP7 (Homo sapiens, UniProt Q7Z3E1); experiment: Selectivity profile (other isoforms of PARP and NRP family); assay type: biochemical
DAPK1 = DAPK1 (Homo sapiens, UniProt P53355); experiment: Selectivity profile (123 kinase panel); assay type: biochemical
PARP14 = PARP14 (Homo sapiens, UniProt Q460N5); experiment: Selectivity profile (other isoforms of PARP and NRP family); assay type: biochemical
HIPK1 = HIPK1 (Homo sapiens, UniProt Q86Z02); experiment: Selectivity profile (123 kinase panel); assay type: biochemical
CHK1 = CHK1 (Homo sapiens, UniProt O14757); experiment: Selectivity profile (123 kinase panel); assay type: biochemical
Chain of CHK1 (O14757 whole entry): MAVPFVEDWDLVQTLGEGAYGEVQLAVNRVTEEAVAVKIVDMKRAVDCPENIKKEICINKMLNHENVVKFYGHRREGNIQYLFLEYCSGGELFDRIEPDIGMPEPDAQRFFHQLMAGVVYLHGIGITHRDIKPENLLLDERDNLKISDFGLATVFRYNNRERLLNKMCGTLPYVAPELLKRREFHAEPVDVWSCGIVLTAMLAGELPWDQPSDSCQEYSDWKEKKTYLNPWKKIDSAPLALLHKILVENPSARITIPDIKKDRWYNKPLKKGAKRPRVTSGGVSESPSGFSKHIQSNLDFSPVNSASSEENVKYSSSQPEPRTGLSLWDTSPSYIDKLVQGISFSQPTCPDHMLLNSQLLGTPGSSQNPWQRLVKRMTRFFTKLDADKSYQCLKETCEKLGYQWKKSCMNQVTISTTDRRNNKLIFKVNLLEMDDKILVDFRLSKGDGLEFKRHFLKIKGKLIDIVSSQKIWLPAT

MST1 = MST1 (Homo sapiens, UniProt Q13043); experiment: Selectivity profile (123 kinase panel); assay type: biochemical
MRCKβ = MRCKβ (Homo sapiens, UniProt Q9Y5S2); experiment: Selectivity profile (123 kinase panel); assay type: biochemical
EPHB1 = EPHB1 (Homo sapiens, UniProt P54762); experiment: Selectivity profile (123 kinase panel); assay type: biochemical

Measured: pIC50

Chain of ACK (Q07912 whole entry): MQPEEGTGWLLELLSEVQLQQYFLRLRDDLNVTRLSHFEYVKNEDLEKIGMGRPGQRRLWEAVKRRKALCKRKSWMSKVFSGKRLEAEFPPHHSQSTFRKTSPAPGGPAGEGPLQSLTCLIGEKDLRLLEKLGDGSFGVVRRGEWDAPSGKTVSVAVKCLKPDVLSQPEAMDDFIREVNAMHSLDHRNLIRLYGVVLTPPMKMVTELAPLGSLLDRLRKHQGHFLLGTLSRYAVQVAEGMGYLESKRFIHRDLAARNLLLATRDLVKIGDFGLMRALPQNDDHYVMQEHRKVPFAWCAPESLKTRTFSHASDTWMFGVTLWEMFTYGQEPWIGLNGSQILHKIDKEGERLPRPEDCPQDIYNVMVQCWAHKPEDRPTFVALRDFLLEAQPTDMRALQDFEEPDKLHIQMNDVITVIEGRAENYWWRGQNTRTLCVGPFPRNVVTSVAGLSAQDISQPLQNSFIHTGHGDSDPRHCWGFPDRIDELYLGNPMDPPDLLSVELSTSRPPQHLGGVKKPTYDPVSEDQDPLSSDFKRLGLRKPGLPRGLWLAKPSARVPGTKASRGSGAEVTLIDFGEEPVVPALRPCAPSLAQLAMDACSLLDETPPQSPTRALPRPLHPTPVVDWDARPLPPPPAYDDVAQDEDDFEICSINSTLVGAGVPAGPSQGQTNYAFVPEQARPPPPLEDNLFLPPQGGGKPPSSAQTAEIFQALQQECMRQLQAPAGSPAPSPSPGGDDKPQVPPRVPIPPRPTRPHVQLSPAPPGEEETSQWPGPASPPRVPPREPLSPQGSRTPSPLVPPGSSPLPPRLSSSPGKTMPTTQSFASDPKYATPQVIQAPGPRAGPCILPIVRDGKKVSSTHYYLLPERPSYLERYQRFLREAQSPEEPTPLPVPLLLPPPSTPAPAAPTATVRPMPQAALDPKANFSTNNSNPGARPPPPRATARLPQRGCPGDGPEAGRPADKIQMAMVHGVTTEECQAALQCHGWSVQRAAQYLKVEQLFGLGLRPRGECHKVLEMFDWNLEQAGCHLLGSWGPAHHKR

NC(N)=NCCC[C@H](NCN1CCN(C(=O)c2cc(Cc3n[nH]c(=O)c4ccccc34)ccc2F)CC1)C(=O)O [PPNR-4]
< 5.00: all assays above

Reference: article PMC11637875, “Discovery of novel PARP1/NRP1 dual-targeting inhibitors with strong antitumor potency” (Frontiers in Pharmacology, 2024)
